System: HL-1 cardiomyocytes
Assay: Oxygen consumption (Clark-type oxygen electrode) in HL-1 cardiomyocytes
Format: cell-based, Mus musculus
Conditions: HL-1 cells, 48 hr treatment, normalized to protein content; FIG. 5
Protocol: Oxygen consumption in HL-1 cardiomyocytes treated with amino acid based compositions or DETA-NO for 48 hr. ****p<0.001 vs. untreated cell; ####p<0.001 vs. BCAAem and B2.
An amount of 1 ml of HL-1 cardiomyocytes treated with the compositions shown in Table 1 was re-suspended in Hank's balanced salt solution (Sigma) and spun down to pellet cells. A number of HL-1 cells was also supplemented with a nitic oxide (NO) donor, specifically with diethylenetriamine-NO also called DETA-NO (Sigma-Aldrich, Milan, Italy), as positive control.
Then, cells were re-suspended in a respiration buffer (0.3 M mannitol, 10 mM KCl, 5 mM MgCl2, 10 mM K2PO4, pH 7.4) at a density of 3.0×10^6/ml.
Samples were analyzed at 37° C. in a gas-tight vessel equipped with a Clark-type oxygen electrode (Rank Brothers Ltd.) connected to a chart recorder.
The oxygen electrode was calibrated assuming the concentration of oxygen in the incubation medium as 200 μmol/l at 37° C.
Oxygen consumption was assessed with continuous mixing for about ten minutes. The slope of the trace recorder was then used to calculate oxygen consumption. Oxygen content may vary depending on the amount of cells. Thus, protein content, which directly correlates with cell content, has been used to normalize the oxygen consumption in cell samples. Protein content was determined by using the bicinchoninic acid protein (BCA) assay.

In the case of `NCCN(CCN)/[N+]([O-])=N/O` [DETA-NO, diethylenetriamine-NO], the oxygen consumption was “rise”.
